Values of other authors as cited in US20140255982A1, “METHOD OF CANCER DIAGNOSIS USING THE ANALYSIS OF ISOTOPES” (priority 2007, published 2014).

Tests used:
[1] = test system: microorganisms; conditions: deuterium in the form of D2O
[2] = test system: rats; conditions: within 5 days; deuterium in the form of D2O

Q: Which “inhibitory activity against microorganisms” value [1] does the source give for `[2H]O[2H]` [D2O] here?
A: 92%

Q: And the “kill rate of rats” value [2]?
A: 99.5%
